Assay results taken from publication PMC8621101, “Inhibition of XPO-1 Mediated Nuclear Export through the Michael-Acceptor Character of Chalcones” (Pharmaceuticals, 2021).

What was measured:
[1] = test system: panel of cancer cell lines; test: Antiproliferative activity, panel of cancer cell lines; type: cell-based; conditions: panel of cancer cell lines
Procedure: (§1) Adherent cell lines HCT-116, NCI-H460 and Hap-1 cells were seeded at a density between 500 and 1500 cells per well in 384-well tissue culture plates (Greiner). After overnight incubation, cells were treated with different concentrations of the test compounds. Suspension cell lines HL-60, K-562, Z-138 and DND-41 were seeded at densities ranging from 2500 to 5500 cells per well in 384-well culture plates containing the test compounds at the same concentration points.

[2] = test system: K-562 cells; test: Cell proliferation assay (IncuCyte confluence), K-562; type: cell-based; conditions: Homo sapiens, K562; K-562 chronic myeloid leukemia; 72 h; mean of two independent experiments ± SEM; read-out: IC50 antiproliferative activity K-562
Procedure: (§2) Cancer cell lines HCT-116, NCI-H460, HL-60, K-562 and Z-138 were acquired from the American Type Culture Collection (ATCC, Manassas, VA, USA). The DND-41 cell line was purchased from the Deutsche Sammlung von Mikroorganismen und Zellkulturen (DSMZ Leibniz-Institut, Brunswick, Germany), and the HAP-1 cell line was ordered from Horizon Discovery (Horizon Discovery Group, Water Beach, UK). All cell lines were cultured as recommended by the suppliers. Culture media were purchased from Gibco Life Technologies and supplemented with 10% fetal bovine serum (HyClone, GE Healthcare Life Sciences, Chicago, Illinois, USA).
as §1

[3] = test system: DND-41 cells; test: Cell proliferation assay (IncuCyte confluence), DND-41; type: cell-based; conditions: DND41; DND-41 acute lymphoblastic leukemia; 72 h; mean of two independent experiments ± SEM; read-out: IC50 antiproliferative activity DND-41
Procedure: as §2, §1

[4] = test system: NCI-H460 cells; test: Cell proliferation assay (IncuCyte confluence), NCI-H460; type: cell-based; conditions: Homo sapiens; NCI-H460 lung carcinoma; 72 h; mean of two independent experiments ± SEM; read-out: IC50 antiproliferative activity NCI-H460
Procedure: as §2, §1

[5] = test system: Hap-1 cells; test: Cell proliferation assay (IncuCyte confluence), Hap-1; type: cell-based; conditions: Homo sapiens, HAP1; Hap-1 chronic myeloid leukemia; 72 h; mean of two independent experiments ± SEM; read-out: IC50 antiproliferative activity Hap-1
Procedure: as §2, §1

[6] = test system: Z-138 cells; test: Cell proliferation assay (IncuCyte confluence), Z-138; type: cell-based; conditions: Homo sapiens; Z-138 non-Hodgkin lymphoma; 72 h; mean of two independent experiments ± SEM; read-out: IC50 antiproliferative activity Z-138
Procedure: as §2, §1

[7] = test system: HCT-116 cells; test: Cell proliferation assay (IncuCyte confluence), HCT-116; type: cell-based; conditions: Homo sapiens; HCT-116 colorectal carcinoma; 72 h; mean of two independent experiments ± SEM; read-out: IC50 antiproliferative activity HCT-116
Procedure: as §2, §1

[8] = test system: HL-60 cells; test: Cell proliferation assay (IncuCyte confluence), HL-60; type: cell-based; conditions: Homo sapiens; HL-60 acute myeloid leukemia; 72 h; mean of two independent experiments ± SEM; read-out: IC50 antiproliferative activity HL-60
Procedure: as §2, §1

[9] = GSH reactivity assay (HPLC, DTNB quench); type: physicochemical; conditions: 500 µM compound, 5 mM GSH, 37 °C; for Reaction with GSH (hetero-Michael addition), qualitative: PBS pH 7.4 with EDTA:DMSO 1:1
Procedure: In order to determine if these chalcones could react with thiol groups through a hetero-Michael addition reaction, a few selected compounds (9, 10, 13 and 18) were incubated with glutathione (GSH). After different incubation times, the reactions were quenched by adding 5,5′-dithiobis(2-nitrobenzoic acid) (DTNB, Ellman´s reagent) (1:1 ratio with respect to the initial concentration of GSH). The course of the reaction was followed by HPLC, adapting reported procedures. […] Thus, although this assay is only qualitative, the tendency observed among these chalcones nicely fits the reactivity described for α-X-2´3,4,4´-tetramethylchalcones.
A 500 µM sample of the tested compound was incubated with 5 mM reduced L-glutathione for 24 h at 37 °C with a final volume of 200 μL. As a solvent system, 20 mM PBS buffer pH 7.4 with 2 mM EDTA:DMSO (1:1) was used. To perform the assay, stock solutions of 20 mM of the chalcones (9, 10, 13 and 18) and 15 mM of reduced L-glutathione were freshly prepared for every experiment and then diluted properly to give the final electrophile:nucleophile ratio (1:10). A 5 mM solution of 5,5′-dithiobis(2-nitrobenzoic acid) (DTNB) was prepared in the same solvent system to quench the reaction. After different time points (10 min, 1 h, 4 h and 24 h), an aliquot of 20 μL of the incubation mixture was quenched by adding 20 μL of the DTNB stock solution, mixed thoroughly, and then analyzed by HPLC. HPLC analysis was performed in Agilent 1120 compact LC, column ACE 5 C18-300 (15 cm × 4.6 mm); UV detection was performed at λ = 254 nm. Solvents used were acetonitrile for bottle A and H2O (containing 0.05% TFA) for bottle B, and the flow rate was 1mL/min. The gradients used were: (A) incubations with chalcone 9: from 10% to 80% of solvent A in 10 min; (B) incubations with chalcones 10 and 18: from 10% to 100% of solvent A in 10 min. The new peaks were analysed by LC-MS. As controls, a 500 μM solution of the α,β-unsaturated compound was also analysed, and a 5 mM reduced L-glutathione solution was quenched by adding DNTB at the same time points. In general, after 6 h of incubation, no GSH was detected.

[10] = biological target: T1, XPO1 (Homo sapiens, UniProt O14980); test: XPO1 phenotypic reporter assay in HeLa NLSSV40-AcGFP-NESPKI cells; type: cell-based; conditions: HeLa GFP reporter cell line; for IC50: 2 h treatment, mean ± SEM of two independent experiments, read-out: XPO1 inhibition IC50
T1 construct: the compounds were assayed in a reporter cell line based on the subcellular localization of a XPO1-dependent GFP reporter cargo protein; endogenous in cells; host or cells: HeLa cells stably transfected with the NLSSV40-AcGFP-NESPKI reporter (only the reporter cargo is transfected, not XPO1)
T1 sequence (O14980 whole entry): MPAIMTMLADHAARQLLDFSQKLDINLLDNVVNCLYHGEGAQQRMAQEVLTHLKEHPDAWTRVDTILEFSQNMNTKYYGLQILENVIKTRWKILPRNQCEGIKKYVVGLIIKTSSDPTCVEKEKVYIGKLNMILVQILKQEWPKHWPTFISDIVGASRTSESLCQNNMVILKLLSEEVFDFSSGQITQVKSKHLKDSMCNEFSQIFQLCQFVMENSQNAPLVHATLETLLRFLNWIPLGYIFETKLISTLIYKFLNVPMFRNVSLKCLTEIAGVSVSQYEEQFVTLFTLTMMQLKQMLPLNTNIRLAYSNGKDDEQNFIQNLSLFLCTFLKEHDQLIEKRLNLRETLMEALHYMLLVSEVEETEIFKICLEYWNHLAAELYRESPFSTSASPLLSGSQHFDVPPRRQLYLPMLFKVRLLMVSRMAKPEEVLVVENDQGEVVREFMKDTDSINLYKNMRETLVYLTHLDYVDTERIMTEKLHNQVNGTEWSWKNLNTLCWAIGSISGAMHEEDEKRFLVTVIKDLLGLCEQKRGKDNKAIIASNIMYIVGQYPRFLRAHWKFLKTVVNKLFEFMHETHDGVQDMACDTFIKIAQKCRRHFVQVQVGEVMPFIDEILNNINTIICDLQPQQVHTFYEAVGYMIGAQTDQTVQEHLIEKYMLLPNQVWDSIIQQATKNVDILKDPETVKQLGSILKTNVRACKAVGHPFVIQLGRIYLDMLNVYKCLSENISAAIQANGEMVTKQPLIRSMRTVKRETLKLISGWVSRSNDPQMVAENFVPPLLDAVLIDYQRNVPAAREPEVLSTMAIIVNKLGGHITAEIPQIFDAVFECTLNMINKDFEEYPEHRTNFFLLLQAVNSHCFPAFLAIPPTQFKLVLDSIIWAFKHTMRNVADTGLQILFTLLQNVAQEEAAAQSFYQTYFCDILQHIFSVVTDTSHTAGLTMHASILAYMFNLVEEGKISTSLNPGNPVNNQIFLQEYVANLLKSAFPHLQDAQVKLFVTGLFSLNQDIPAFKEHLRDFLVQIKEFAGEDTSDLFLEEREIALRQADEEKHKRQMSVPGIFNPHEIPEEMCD
Procedure: Stably transfected HeLa NLSSV40-AcGFP-NESPKI were cultured as described in Vercruysse et al.
To study the XPO1-mediated nuclear export, stably transfected HeLa NLSSV40-AcGFP-NESPKI reporter cells were seeded at 8000 cells per well in 96-well all clear tissue culture plates (TPP). After overnight incubation, cells were treated with different doses of compound or solvent (DMSO) for 2 h and then fixed and counterstained with DAPI. Fluorescence was read on an ArrayScan XTI High Content Reader (Thermo Fisher Scientific, Waltham, MA, USA). Nuclear and cytoplasmic compartments were segmented and their average pixel intensities in the green channel were quantitated employing the HCS Studio software. Genedata Screener software was used for dose-response curve fitting, and calculation of EC50 values was based on the percentage of cells having a predominant nuclear localisation (ratio of nuclear to cytoplasmic signal equal or above 1.4) of the reporter construct. Compounds were tested in two independent experiments and represented as mean ± SEM.

Row | Structure (SMILES) | Antiproliferative activity, in words [1] | IC50 [2] | IC50 [3] | IC50 [4] | IC50 [5] | IC50 [6] | melting point | IC50 [7] | IC50 [8] | Reaction with GSH (hetero-Michael addition), qualitative [9] | Reversibility of GSH adducts (retro-Michael), qualitative ([9]; longer incubation) | XPO1 inhibition, in words [10] | IC50 [10]
1 | COC(=O)/C(=C/c1cncnc1)C(=O)c1ccc2ccccc2c1 [Compound 13, (E)-2-Methoxycarbonyl-1-(naphthalene-2-yl)-3-(pyrimidin-5-yl)prop-2-en-1-one] | almost inactive | > 100 µM | ≥ 30.6 µM | ≥ 47.1 µM | ≥ 54.9 µM | > 100 µM | 161 to 163 °C | ≥ 15.5 µM | > 100 µM | provided the Michael adducts with GSH after a short reaction time | adducts reverted to the parent chalcone | inactive against XPO1 | > 100 µM
2 | O=C(/C=C/c1cccnc1)c1ccc2ccccc2c1 [Compound 24, (E)-1-(Naphthalen-2-yl)-3-(pyridin-3-yl)prop-2-en-1-one] | low µM range | 2.2 ± 0.03 µM | 1.8 ± 0.5 µM | 4.3 ± 2.2 µM | 1.6 ± 0.1 µM | 1.6 ± 0.1 µM | 123 to 125 °C | 3.1 ± 0.9 µM | 3.5 ± 2.1 µM |  |  |  | 1.27 ± 0.29 µM
3 | COCCOc1cc(OC)cc(C(=O)/C=C/c2cncnc2)c1 [Compound 33, (E)-1-(3′-Methoxy-5′-(2-methoxyethoxy)phenyl)-3-(pyrimidin-5′’-yl)prop-2-en-1-one] |  | 37.5 ± 0.9 µM | 3.7 ± 1.6 µM | 16.9 ± 4.5 µM | 4.3 ± 2.5 µM | 1.5 ± 0.2 µM |  | 34.2 ± 6.5 µM | 10 ± 0.9 µM |  |  | active | 12.3 ± 1.28 µM
4 | COC(=O)/C(=C\c1cncnc1)C(=O)c1cc(OC)cc(OC)c1 [Compound 30, (E)-2-Methoxycarbonyl-1-(3′,5′-dimethoxybenzoyl)-3-(pyrimidin-5′-yl)prop-2-en-1-one] | considerably less active than the α-H chalcone 10 | 42.9 ± 0.1 µM | 43.2 ± 6.4 µM | 17.3 ± 4.6 µM | ≥ 32 µM | 47.6 ± 1.1 µM | 81 to 82 °C | ≥ 22.2 µM | 23.4 ± 1.9 µM |  |  | almost inactive against XPO1 | 87.3 ± 4.91 µM
5 | NC(=O)C(=Cc1cncnc1)C(=O)c1ccc2ccccc2c1 [Compound 5, reference compound] |  |  |  |  |  |  |  |  |  |  |  |  | 9.18 ± 3.28 µM
6 | O=C(/C=C/c1ccncc1)c1ccc2ccccc2c1 [Compound 26, (E)-1-(Naphthalen-2-yl)-3-(pyridin-4-yl)prop-2-en-1-one] | low µM range | 4 ± 0.2 µM | 1.9 ± 0.4 µM | 7.7 ± 1.1 µM | 2.3 ± 0.3 µM | 1.1 ± 0.4 µM | 135 to 137 °C | 1.9 ± 0.4 µM | 0.9 ± 0.2 µM |  |  |  | 10.7 ± 3.24 µM
7 | COc1cc(OCC=C(C)C)cc(C(=O)/C=C/c2cncnc2)c1 [Compound 34, (E)-1-(3′-Methoxy-5′-((3-methylbut-2-en-1-yl)oxy)phenyl)-3-(pyrimidin-5′’-yl)prop-2-en-1-one] |  | 4.1 ± 1.9 µM | 10.1 µM | 34.5 ± 5.2 µM | 10 ± 2 µM | 4.6 ± 2.7 µM |  | 52.9 ± 3.6 µM | 40.2 ± 10.1 µM |  |  | active | 1.59 ± 0.36 µM
8 | C/C(=C\c1cncnc1)C(=O)c1ccc2ccccc2c1 [Compound 18, (E)-2-Methyl-1-(naphthalen-2-yl)-3-(pyrimidin-5-yl)prop-2-en-1-one] | almost inactive | 48.5 ± 2.4 µM | 39.1 ± 5.3 µM | > 100 µM | > 100 µM | > 100 µM |  | > 100 µM | ≥ 40.9 µM | remained almost unaltered even after 4 h of incubation |  | inactive against XPO1 | > 100 µM
9 | O=C(/C=C/c1ccccn1)c1ccc2ccccc2c1 [Compound 25, (E)-1-(Naphthalen-2-yl)-3-(pyridin-2-yl)prop-2-en-1-one] | low µM range | 4.8 ± 2.8 µM | 2.6 ± 0.4 µM | 51.6 ± 11.7 µM | 3.4 ± 0.5 µM | 2.3 ± 0.5 µM | 89 to 90 °C | 3.9 ± 1.5 µM | 1.8 ± 0.05 µM |  |  |  | 7.28 ± 1.34 µM
10 | NC(=O)/C(=C/c1cncnc1)C(=O)c1ccc2ccccc2c1 [Compound 15, (E)-2-Carbamoyl-1-(naphthalene-2-yl)-3-(pyrimidin-5-yl)prop-2-en-1-one] | slightly less active than the parent chalcone 9 | 2.1 ± 0.1 µM | 8.9 ± 0.9 µM | 2.6 ± 0.7 µM | 2.1 ± 0.7 µM | 5.1 ± 2.7 µM |  | 5.3 ± 3.1 µM | 5.5 ± 3.6 µM |  |  |  | ~10 µM
